pKd: −log10 of the molar value. Where “and” joins values, the source holds several entries; their conditions need not be identical. Identical values can stand only once.

Type in all cases: binding
Test [1] concerns the target T1, 647-RhoA (Homo sapiens, UniProt P61586).
T1 construct: made in house
Kind of test: Microscale thermophoresis (MST) with 647-RhoA. The procedure: (§1) The final concentration of GFP-AKAP-Lbc/DHPH was set to 150 nM, 95% LED and 80% MST laser power. […] The samples were incubated in the dark for 1 h incubation at room temperature, and measured with 30 sec laser-on and 5 sec laser-off time at a Monolith NT.115 device (NanoTemper). Measured fluorescence (F) was normalised (Fhot/Fcold = Fsteady state/Finitial state, Fig 3). Values of thermophoresis + T-jump were related to average of each measurement row (16 capillaries). Final values are given as ‰.
(§2) Fig 4 The Scaff10 derivative Scaff10-8 binds to RhoA but not to the DHPH domain of AKAP-Lbc. (A-D) Microscale thermophoresis (MST) takes advantage of the phenomenon of directed movement of particles in a temperature gradient. Binding events lead to changes in the hydration shell of biomolecules and a relative change of movement of the molecular complex along a temperature gradient. Using such changes, binding affinities can be determined. MST assays were carried out with (A) the recombinant DHPH domain of AKAP-Lbc fused with GFP and RhoA as a ligand and (B) fluorescent 647-RhoA and the His-tagged AKAP-Lbc/DHPH domain as a ligand. (C) MST assays for the analysis of the binding of Scaff10-8 to 647-RhoA. Upper panels: The concentration of fluorescent 647-RhoA remained constant and Scaff10-8 (left) and Scaff10-7 as a negative control (right) were titrated in increasing concentrations. Lower panels: Values of fluorescence corresponding to upper panels. (D) MST assay showing no binding of Scaff10-8 or Scaff10-7 to GFP-DHPH. Upper panels: The concentration of fluorescent GFP-AKAP-Lbc/DHPH remained constant and Scaff10-8 (left) and Scaff10-7 (right) were titrated in increasing concentrations. Lower panels: Values of fluorescence corresponding to upper panels. […] F norm = normalized fluorescence (fluorescence steady state/fluorescence initial state) indicated in ‰. n = 3–5. Mean ± SEM. […] The ligand protein named in each panel heading is used as the substance label, and it is uncertain whether these count as substances.
For orientation: Microscale thermophoresis detects binding through changes in fluorescence in a small temperature gradient.

In test [2] the target is T2, GFP-AKAP-Lbc/DHPH (Homo sapiens, UniProt Q12802).
T2 construct: His6-AKAP-Lbc/DHPH (aa 1972–2342 of human AKAP-Lbc; NP_006729.4); made in house; host or cells: HEK293-EBNA cells (transient transfection, pTT5)
T2 sequence (Q12802 1972-2342 isoform Q12802-2): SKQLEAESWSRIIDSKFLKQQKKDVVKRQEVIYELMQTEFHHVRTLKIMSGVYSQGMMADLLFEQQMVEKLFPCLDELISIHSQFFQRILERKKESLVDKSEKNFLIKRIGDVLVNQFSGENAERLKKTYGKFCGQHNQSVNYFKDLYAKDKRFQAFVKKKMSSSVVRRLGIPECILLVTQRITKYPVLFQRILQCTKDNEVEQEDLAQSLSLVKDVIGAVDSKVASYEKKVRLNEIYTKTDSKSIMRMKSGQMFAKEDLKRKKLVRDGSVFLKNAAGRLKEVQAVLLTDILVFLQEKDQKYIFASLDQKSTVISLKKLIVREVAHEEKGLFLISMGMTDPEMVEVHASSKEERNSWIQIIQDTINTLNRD
Kind of test: Microscale thermophoresis (MST) with GFP-AKAP-Lbc/DHPH. As to conditions: result in words. How it is done:
as §1, §2

Test [3] addresses His6-GST fusion protein (Schistosoma japonicum, UniProt P08515). Briefly: HTRF control assay with His6-GST fusion protein. As to conditions: control for interference with tags or antibodies. How it is done: The assay was essentially carried out as described. Scaff10 derivatives were added to His6-AKAP-Lbc/DHPH protein (250 nM final concentration) in HTRF buffer (PBS; 4 mM MgCl2; 0.05% Tween 20) in 384 well plates (Proxiplate-384 Plus, white, #6008289; Perkin Elmer LAS, Rodgau, Germany). Concentrations of Scaff10 derivatives ranged between 1.56–200 μM (2% DMSO final concentration); HTRF buffer with 2% DMSO served as a control. GST-RhoA (30 nM final concentration) in HTRF buffer and anti-GST antibody coupled to terbium (donor) and anti-His6-tag antibody coupled to XL665 (acceptor) were added to all wells (final antibody concentration: 2 μg/ml). After 1 h incubation at room temperature in the dark, FRET signals were recorded at 620 and 665 nm using a Genios Pro plate reader (Tecan Austria GmbH, Grödig, AT) and the ratios of […] to 620 nm were calculated. Wells containing no compound were set to 100% interaction of AKAP-Lbc/DHPH with RhoA, wells containing GST-RhoA only (without His6-AKAP-Lbc/DHPH) were set to 0% interaction. To exclude any interference of the tags and/or antibodies with Scaff10 derivatives, a His6-GST fusion protein replaced the two tagged proteins in a control assay. Wells containing His6-GST fusion protein were set to 100% interaction of His6-GST, wells containing no fusion protein were set to 0% interaction.
For orientation: In TR-FRET formats the signal depends on donor and acceptor labels being close together.

T1 sequence (P61586 whole entry): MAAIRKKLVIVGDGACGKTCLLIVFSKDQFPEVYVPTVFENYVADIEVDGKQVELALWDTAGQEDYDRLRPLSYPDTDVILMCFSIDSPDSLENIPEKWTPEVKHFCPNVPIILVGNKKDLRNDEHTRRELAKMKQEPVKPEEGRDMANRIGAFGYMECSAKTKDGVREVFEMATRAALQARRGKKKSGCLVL
Chain of His6-GST fusion protein (P08515 whole entry, the tested form may be a part): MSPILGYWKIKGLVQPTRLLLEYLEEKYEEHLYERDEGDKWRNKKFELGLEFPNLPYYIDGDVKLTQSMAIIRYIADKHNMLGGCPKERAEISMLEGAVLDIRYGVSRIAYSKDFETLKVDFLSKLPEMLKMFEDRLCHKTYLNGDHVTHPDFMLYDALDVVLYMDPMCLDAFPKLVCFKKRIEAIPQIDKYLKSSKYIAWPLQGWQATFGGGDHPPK

As to `CCOC(=O)CCc1c(C)c2ccc(OCC(=O)c3ccc(OC)cc3)cc2oc1=O` [Scaff10-7, Ethyl 3-[7-[2-(4-methoxyphenyl)-2-oxo-ethoxy]-4-methyl-2-oxo-chromen-3-yl]propanoate], the “binding to 647-RhoA” value in test [1] (result in words) was “did not bind”. The “binding to GFP-AKAP-Lbc/DHPH” value in test [2] is given as “no binding”.

The term pKd denotes the Kd on a negative log10 scale, so that one unit is a factor of ten. A low value points to a high Kd. Consider `COc1ccc(-c2coc3cc4oc(=O)c(CCC(=O)O)c(C)c4cc23)cc1` [Scaff10-8, 3-[3-(4-Methoxyphenyl)-5-methyl-7-oxo-furo[3,2-g]chromen-6-yl] propanoic acid], for which, in test [3], the “interaction with His-GST fusion protein” value is “does not interact”. Further, the pKd in test [1] (KD for binding to 647-RhoA, mean ± SEM, n = 3–5) is 4.70 and 4.69. In addition, in test [2], the “binding to GFP-AKAP-Lbc/DHPH” value was “no binding”.

These data come from PMC5786306, “An AKAP-Lbc-RhoA interaction inhibitor promotes the translocation of aquaporin-2 to the plasma membrane of renal collecting duct principal cells” (PLoS ONE, 2018).
